Structures can show the parent of a compound that is named as a salt. Where only a bound is given, the exact number is not on record here.

Our source for the IC50 values is patent publication US20230019491A1, “PYRIMIDINE TBK/IKKe INHIBITOR COMPOUNDS AND USES THEREOF” (Merck Patent GmbH, priority 2017, published 2023).

For one test, the target named is T1, TBK1 (Homo sapiens, UniProt Q9UHD2).
T1 sequence (Q9UHD2 1-729): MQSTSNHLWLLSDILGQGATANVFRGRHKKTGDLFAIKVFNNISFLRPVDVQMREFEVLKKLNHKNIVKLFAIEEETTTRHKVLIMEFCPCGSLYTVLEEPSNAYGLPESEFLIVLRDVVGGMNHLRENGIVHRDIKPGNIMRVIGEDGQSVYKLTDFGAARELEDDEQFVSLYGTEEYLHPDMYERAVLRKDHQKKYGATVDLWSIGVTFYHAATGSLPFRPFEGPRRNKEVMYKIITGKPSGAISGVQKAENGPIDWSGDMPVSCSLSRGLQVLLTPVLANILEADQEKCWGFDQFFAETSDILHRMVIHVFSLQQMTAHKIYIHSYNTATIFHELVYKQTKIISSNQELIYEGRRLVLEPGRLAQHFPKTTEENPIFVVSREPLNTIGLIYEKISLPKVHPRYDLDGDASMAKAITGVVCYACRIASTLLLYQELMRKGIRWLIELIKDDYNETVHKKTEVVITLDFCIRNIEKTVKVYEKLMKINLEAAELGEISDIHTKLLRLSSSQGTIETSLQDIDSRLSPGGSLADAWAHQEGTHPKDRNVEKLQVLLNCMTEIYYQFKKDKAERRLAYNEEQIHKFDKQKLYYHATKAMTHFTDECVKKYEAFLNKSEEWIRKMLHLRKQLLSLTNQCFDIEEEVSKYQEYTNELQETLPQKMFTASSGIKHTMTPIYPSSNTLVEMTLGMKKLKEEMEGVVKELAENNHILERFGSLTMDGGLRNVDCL
The test can be described thus: TBK biochemical assay. The settings on record: 10 point 1:4 dose response, 30 uM top concentration, 90 min at 25° C., LabChip EZ Reader II; read-out: TBK1_IC50. On the procedure:
(§1) Test compounds were transferred into Labcyte polypropylene 384 well plates (P055-25) and diluted to 3 mM using DMSO. […] 100 uM of a reference compound (1 uM final high concentration). Backfilling was performed if necessary so that all wells contain 1% DMSO final:
add 75 nl DMSO/well into columns 1, 2 and 24 using Labcyte Echo. add 75 nl 1.0 mM staurosporine/well into column 23 using Labcyte Echo ([…]) add 4.5 ul enzyme/well using multidrop dispenser add 3 ul substrate/well using multidrop dispenser incubate at 25° C. in Heidolph incubator for 90 min. add 7.5 ul 2× stop buffer using multidrop dispenser read on labchip ez reader II using TBK1.job
(§2) Raw data files were opened in the Caliper LabChip Reviewer program (Version 3.0.265.0 SP2) and peak assignments were adjusted to reflect “substrate first” with the software's post-run analysis options. A spline-fit baseline was applied using the software's analysis algorithm.

A further test addresses T2, IKKε (Homo sapiens, UniProt Q14164).
T2 sequence (Q14164 1-716): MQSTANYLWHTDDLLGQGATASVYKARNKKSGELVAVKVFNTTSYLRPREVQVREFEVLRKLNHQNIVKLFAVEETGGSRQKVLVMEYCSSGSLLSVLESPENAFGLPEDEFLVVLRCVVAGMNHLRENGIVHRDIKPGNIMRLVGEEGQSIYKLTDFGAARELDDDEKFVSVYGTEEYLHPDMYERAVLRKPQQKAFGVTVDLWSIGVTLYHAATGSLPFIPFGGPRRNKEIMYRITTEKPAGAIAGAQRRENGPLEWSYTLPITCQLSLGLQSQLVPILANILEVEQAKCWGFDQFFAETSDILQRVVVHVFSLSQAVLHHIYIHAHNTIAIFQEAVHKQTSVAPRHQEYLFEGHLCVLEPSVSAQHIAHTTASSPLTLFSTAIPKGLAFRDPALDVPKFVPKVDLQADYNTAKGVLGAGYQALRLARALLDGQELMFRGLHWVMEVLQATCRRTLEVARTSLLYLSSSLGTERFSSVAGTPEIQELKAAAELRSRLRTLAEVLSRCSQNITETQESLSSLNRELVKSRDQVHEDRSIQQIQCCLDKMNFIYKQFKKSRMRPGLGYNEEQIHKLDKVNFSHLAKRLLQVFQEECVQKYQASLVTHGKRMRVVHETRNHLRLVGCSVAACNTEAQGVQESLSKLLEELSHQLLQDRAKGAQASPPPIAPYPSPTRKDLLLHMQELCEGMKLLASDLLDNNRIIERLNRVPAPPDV
In words: IKKε biochemical assay. The following applies: 10 point 1:4 dose response, 30 uM top concentration, 90 min at 25° C., LabChip EZ Reader II; read-out: IKKε_IC50. How it is done: as §1
add 75 nl DMSO/well into columns 1, 2 and 24 using Labcyte Echo. add 75 nl 1.0 mM staurosporine/well into column 23 using Labcyte Echo (10 uM final) add 4.5 ul enzyme/well using multidrop dispenser add 3 ul substrate/well using multidrop dispenser incubate at 25° C. for 90 min. add 7.5 ul 2× stop buffer read on labchip ez reader II using IKKε.
as §2

For the molecule `COc1cccc(Nc2nccc(-c3ccc(O[C@H]4CCN(C(=O)[C@H](C)O)CC4(F)F)c(C#N)c3)n2)n1` [Example 240, 2-[[(4S)-3,3-difluoro-1-[(2S)-2-hydroxypropanoyl]piperidin-4-yl]oxy]-5-[2-[(6-methoxypyridin-2-yl)amino]pyrimidin-4-yl]benzonitrile], the IC50 on TBK1 and on IKKε was 100 to 1000 nM each time.

In the case of `COc1nc(Nc2nccc(-c3ccc(O[C@@H]4CCN(C(=O)[C@H](C)O)C[C@@H]4F)c(C#N)c3)n2)ccc1N1CCN(C2COC2)CC1` [Example 118, 2-[(3S,4R)-3-Fluoro-1-((S)-2-hydroxy-propionyl)-piperidin-4-yloxy]-5-{2-[6-methoxy-5-(4-oxetan-3-yl-piperazin-1-yl)-pyridin-2-ylamino]-pyrimidin-4-yl}-benzonitrile], the IC50 at TBK1 and at IKKε was < 100 nM each time.

As for `COc1nc(Nc2nccc(-c3ccc(OC4CCN(C(=O)C(C)O)CC4)c(C#N)c3)n2)ccc1N1CCN(C)CC1` (centres unmarked) [Example 91, 2-[[1-(2-hydroxypropanoyl)piperidin-4-yl]oxy]-5-(2-[[6-methoxy-5-(4-methylpiperazin-1-yl)pyridin-2-yl]amino]pyrimidin-4-yl)benzonitrile hydrochloride], the IC50 at TBK1 and on IKKε was < 100 nM each time.

For `COc1nc(Nc2nccc(-c3ccc(OC4CCN(C(=O)c5cnco5)CC4)c(C#N)c3)n2)ccc1C(=O)N(C)C` [Example 79, 6-([4-[3-cyano-4-([1-[(1,3-oxazol-5-yl)carbonyl]piperidin-4-yl]oxy)phenyl]pyrimidin-2-yl]amino)-2-methoxy-N,N-dimethylpyridine-3-carboxamide], the IC50 at TBK1 and on IKKε was < 100 nM each time.

In the case of `COc1nc(Nc2nccc(-c3ccc(OC4CCN(C(=O)[C@@H](C)O)CC4(F)F)c(C#N)c3)n2)ccc1N1CCN(C2COC2)[C@H](C)C1` (stereo partly drawn) [Example 126, 2-[3,3-Difluoro-1-((R)-2-hydroxy-propionyl)-piperidin-4-yloxy]-5-{2-[6-methoxy-5-((R)-3-methyl-4-oxetan-3-yl-piperazin-1-yl)-pyridin-2-ylamino]-pyrimidin-4-yl}-benzonitrile], the IC50 at TBK1 and on IKKε was < 100 nM in each case.

For “tert-butyl 4-[2-cyano-5-methyl-4-[2-([4-[4-(oxetan-3-yl)piperazin-1-yl]phenyl]amino)pyrimidin-4-yl]phenoxy]-3,3-difluoropiperidine-1-carboxylate [Example 308]”, the IC50 at TBK1 and at IKKε was < 100 nM in each case.

With `COc1cccc(Nc2nccc(-c3ccc(OC4CCN(C(=O)C(C)O)CC4(F)F)c(C#N)c3)n2)n1` (stereo in doubt) [Example 328, 2-([3,3-difluoro-1-[(2S)-2-hydroxypropanoyl]piperidin-4-yl]oxy)-5-[2-[(6-methoxypyridin-2-yl)amino]pyrimidin-4-yl]benzonitrile], the IC50 at TBK1 and on IKKε was < 100 nM in each case.

For `COc1nc(Nc2nccc(-c3ccc(OC4CCN(C(=O)c5n[nH]c(C)n5)CC4)c(C#N)c3)n2)ccc1C(=O)N(C)C` [Example 78, 6-([4-[3-cyano-4-([1-[(5-methyl-1H-1,2,4-triazol-3-yl)carbonyl]piperidin-4-yl]oxy)phenyl]pyrimidin-2-yl]amino)-2-methoxy-N,N-dimethylpyridine-3-carboxamide], the IC50 at TBK1 and on IKKε was < 100 nM throughout.

Turning to `COc1nc(Nc2nccc(-c3ccc(OC4CCOCC4)c(C#N)n3)n2)ccc1C(=O)NC1CN2CCC1CC2` (centres unmarked) [Example 29, N-[1-azabicyclo[2.2.2]octan-3-yl]-6-([4-[6-cyano-5-(oxan-4-yloxy)pyridin-2-yl]pyrimidin-2-yl]amino)-2-methoxypyridine-3-carboxamide], the IC50 on TBK1 and at IKKε was < 100 nM in each case.

As to `CC(O)C(=O)N1CCC(Oc2ccc(-c3ccnc(Nc4ccc(C5CCN(C)CC5)cc4)n3)cc2C#N)C(F)(F)C1` (centres unmarked) [Example 149, 2-[[3,3-difluoro-1-(2-hydroxypropanoyl)piperidin-4-yl]oxy]-5-(2-[[4-(1-methylpiperidin-4-yl)phenyl]amino]pyrimidin-4-yl)benzonitrile], the IC50 on TBK1 and at IKKε was < 100 nM in each case.

With `COc1nc(Nc2nccc(-c3ccc(OC4CCN(C(=O)[C@@H](C)O)CC4(F)F)c(C#N)c3)n2)ccc1N1CCN(C2COC2)C[C@H]1C` (stereo partly drawn) [Example 130, 2-[3,3-Difluoro-1-((R)-2-hydroxy-propionyl)-piperidin-4-yloxy]-5-{2-[6-methoxy-5-((R)-2-methyl-4-oxetan-3-yl-piperazin-1-yl)-pyridin-2-ylamino]-pyrimidin-4-yl}-benzonitrile], the IC50 on TBK1 and at IKKε was < 100 nM in each case.

With `COc1nc(Nc2nccc(-c3ccc(O[C@H]4CCNC[C@H]4F)c(C#N)c3)n2)ccc1C(=O)N(C)C` [Example 74, 6-[[4-(3-cyano-4-[[(3R,4S)-3-fluoropiperidin-4-yl]oxy]phenyl)pyrimidin-2-yl]amino]-2-methoxy-N,N-dimethylpyridine-3-carboxamide], the IC50 at TBK1 and on IKKε was < 100 nM throughout.

For `CN1CCC(Oc2ccc(-c3ccnc(Nc4ccc(N5CCN(C)CC5)cn4)n3)cc2C#N)CC1` [Example 83, 5-(2-[[5-(4-methylpiperazin-1-yl)pyridin-2-yl]amino]pyrimidin-4-yl)-2-[(1-methylpiperidin-4-yl)oxy]benzonitrile], the IC50 at TBK1 was > 5000 nM; on IKKε, 1000 to 5000 nM.

`C[C@@H](O)C(=O)N1CCC(Oc2ccc(-c3ccnc(Nc4ccc(N5CCN(C6COC6)CC5)cc4)n3)cc2C#N)C(F)(F)C1` (stereo partly drawn) [Example 141, 2-([3,3-difluoro-1-[(2R)-2-hydroxypropanoyl]piperidin-4-yl]oxy)-5-[2-([4-[4-(oxetan-3-yl)piperazin-1-yl]phenyl]amino)pyrimidin-4-yl]benzonitrile]: the IC50 at TBK1 and at IKKε was < 100 nM each time.

For `C[C@@H](O)C(=O)N1CCC(Oc2ccc(-c3ccnc(Nc4ccc(C5CCN(C6COC6)CC5)cc4)n3)cc2C#N)C(F)(F)C1` (stereo partly drawn) [Example 226, 2-([33-difluoro-1-[(2R)-2-hydroxypropanoyl]piperidin-4-yl]oxy)-5-[2-([4-[1-(oxetan-3-yl)piperidin-4-yl]phenyl]amino)pyrimidin-4-yl]benzonitrile], the IC50 on TBK1 and on IKKε was < 100 nM each time.

On to `COc1nc(Nc2nccc(-c3ccc(OC4CCN(C(=O)[C@H](C)O)CC4)c(C#N)c3)n2)ccc1N1CCN(C2COC2)CC1` [Example 187, 2-([1-[(2S)-2-hydroxypropanoyl]piperidin-4-yl]oxy)-5-[2-([6-methoxy-5-[4-(oxetan-3-yl)piperazin-1-yl]pyridin-2-yl]amino)pyrimidin-4-yl]benzonitrile], for which the IC50 on TBK1 and at IKKε was < 100 nM each time.
